# Results published in patent US20260224544A1, “Intranasal Formulations for Treating Obstructive Sleep Apnea” (Mosanna Therapeutics AG, priority 2023, published 2026).
# “Also recorded” adds a separate entry of the source.
# Columns and labels:
# [1] = Compound 1 drug substance batch analysis (particle size distribution); type: physicochemical
# Excerpt: The following compound 1 batches were manufactured (Table 31).
# [2] = system: male patients with Obstructive Sleep Apnea-Hypopnea Syndrome (OSAHS); test: Phase 2 clinical trial: treatment emergent adverse events (TEAE); type: in vivo, human; conditions: single intranasal dose 18 mg, n = 38
# Method: (§1) This was a single intranasal dose, multi-center, randomized, placebo-controlled, double-blind, 2-way crossover study with two treatment periods in male patients with Obstructive Sleep Apnea-Hypopnea Syndrome (OSAHS).
# (§2) After a screening phase of up to 21 days, the patients received single doses of 18 mg of compound 1 administered as 3 actuations of 100 μL of study drug into each nostril (9 mg/nostril) or matching placebo at bedtime in each study period. The single nasal doses were administered in a sitting position. There was a wash-out period of 2 days to 3 weeks between the two study periods. The duration of the study per patient ranged from 13 days to a maximum of 8 weeks.
# The Safety population was defined as all randomized patients exposed to the study medication, regardless of the amount of treatment administered. Patients were analyzed using the treatment they actually received at each period.
# [3] = system: male patients with Obstructive Sleep Apnea-Hypopnea Syndrome (OSAHS); test: Phase 2 clinical trial: change from baseline in Apnea Hypopnea Index (AHI) by overnight polysomnography; type: in vivo, human; conditions: single intranasal dose 18 mg
# Method: as §1, §2
# Efficacy was assessed in a blinded fashion using overnight polysomnographic recordings (PSG) which were centrally read and interpreted. The central readers were blinded with regard to the treatment sequence the patients received and with regard to potential safety findings. Maintenance of Wakefulness Tests (MWT) and Stanford Sleepiness Scores (SSS) were also used for the assessment of Excessive Daytime Sleepiness (EDS), and plasma concentrations of compound 1 were assessed at baseline and approximately 10 hours after study drug administration (data not shown). […]
# Patients were analyzed using the treatment they actually received at each period, irrespective of the treatment sequence they were randomized to. […]
# [4] = system: upper airway collapsibility; conditions: anesthetized pigs, administered topically to the upper airway; Wirth et al. 2013; cited from earlier work
# [5] = Compound 1 drug substance stability (ICH storage conditions); type: physicochemical; conditions: long term conditions 25±2° C./60±5%, data not shown
# Method: A stability study for compound 1 batch H (non-micronized, GMP) was initiated as per ICH storage conditions described in Table 36.
# Results for 1 month of storage at 25±2° C./60±5% RH, 30±2° C./65±5% RH and at 40±2° C./75±5% RH are available to date.
# A stability study for compound 1 batch L and M (micronized to d90<10 μm and d90<35 μm respectively, scheduled GMP sublots of compound 1 batch H) will be initiated as per ICH reference storage conditions described in Table 37 and Table 38.
# To date, only limited data are available on compound 1 drug substance both non-micronized and micronized.
smiles,measurement,setting,value
COc1ccc(CC(=O)NCc2ccccc2-c2ccccc2C(=O)NCCc2cccnc2)cc1 [Cmpd 1 batch K],Particle size distribution d10,[1]; micronized drug substance,d10 1.81 μm
same,Particle size distribution d50,[1]; micronized drug substance,d50 12.53 μm
same,Particle size distribution d90,[1]; micronized drug substance,d90 30.01 μm
"COc1ccc(CC(=O)NCc2ccccc2-c2ccccc2C(=O)NCCc2cccnc2)cc1 [Compound 1, 2′-{[2-(4-methoxy-phenyl)-acetylamino]-methyl}-biphenyl-2-carboxylic acid (2-pyridin-3-yl-ethyl)-amide]","All grade TEAEs: Cough, %",[2],(50.0%)
same,"All grade TEAEs: Eye Disorders, %",[2],(57.9%)
same,"All grade TEAEs: Increased tearing, %",[2],(52.6%)
same,"All grade TEAEs: Nasal discomfort, %",[2],(36.8%)
same,"All grade TEAEs: Respiratory, %",[2],(97.4%)
same,"All grade TEAEs: Rhinorrhea, %",[2],(18.4%)
same,"All grade TEAEs: Sneezing, %",[2],(84.2%)
same,"All grade TEAEs: Throat irritations, %",[2],(34.2%)
same,"AHI (num/hr) LS mean difference, compound 1 versus placebo, change from baseline",[3]; ITT population,−3.78 num/hr
same,primary efficacy outcome (reduction of AHI versus placebo),[3],not statistically significant; also recorded: no significant improvement in obstructive sleep apnea
same,D90 of drug substance,[1]; micronized drug substance,approximately 4.9 μm
same,D90 of drug substance,[1]; non micronized batch sieved with a 32 μm mesh,approximately 28 μm
same,inhibition of upper airway collapsibility,[4],dose-dependently inhibit upper airway collapsibility
COc1ccc(CC(=O)NCc2ccccc2-c2ccccc2C(=O)NCCc2cccnc2)cc1 [listing 1 of 2 here],time for which stability was demonstrated,[5]; lots manufactured in 2004,up to 36 months
COc1ccc(CC(=O)NCc2ccccc2-c2ccccc2C(=O)NCCc2cccnc2)cc1 [Cmpd 1 batch E],Particle size distribution d10,[1]; micronized drug substance,d10 0.96 μm
same,Particle size distribution d50,[1]; micronized drug substance,d50 4.14 μm
same,Particle size distribution d90,[1]; micronized drug substance,d90 8.85 μm
COc1ccc(CC(=O)NCc2ccccc2-c2ccccc2C(=O)NCCc2cccnc2)cc1 [listing 2 of 2 here],time for which stability was demonstrated,"[5]; micronized, 2004 lot",up to 12 months
COc1ccc(CC(=O)NCc2ccccc2-c2ccccc2C(=O)NCCc2cccnc2)cc1 [Cmpd 1 batch L],Particle size distribution d10,[1]; micronized drug substance,d10 0.80 μm
same,Particle size distribution d50,[1]; micronized drug substance,d50 2.3 μm
same,Particle size distribution d90,[1]; micronized drug substance,d90 5.9 μm
